Results on two compounds are retold here after patent US20240279232A1, “USE OF SUBSTITUTED 5-(4-METHYL-6-PHENYL-4H-BENZO[F]IMIDAZO[1,5-A][1,4] DIAZEPIN-3-YL)-1,2,4-O[…] THE TREATMENT OF INFLAMMATORY CONDITIONS” (priority 2021, published 2024).

One experiment deals with Swiss Webster mice. Put plainly: Formalin test. The class given is in vivo, mouse. The following applies: orally; GL-IV-03 10 mg/kg; ketoprofen 30 mg/kg. On the procedure: Webster mice were treated orally four days in advance with indicated compounds and doses before the injection of 2% formalin in the right hind paw. Mice were evaluated during the first 5 min (phase 1) and after 20 minutes (phase 2) for 5 minutes in 5 seconds intervals Licking and biting the right hind paw during a 5 second interval was noted and combined as total time addressing the injected paw. Data is given as mean with SEM (n =8). ** indicate p<0.01 (unpaired t-test).
The antinociceptive effect of GL-IV-03 was investigated with the formalin test. Paw injections of formalin elicited a biphasic pain response separated in time (1-5 minutes and 20-60 minutes). […] Sensorimotor impairment and sedation were investigated with mice that were trained to balance on a rotating rod over a period of three minutes (rotarod). The amount of time that mice remained balanced on the rod after intraperitoneal (i.p.) and oral (p.o.) treatment with GL-IV-03 and MP-IV-010 is summarized in FIG. 7B-7C. […] The effect was similar to non-steroidal anti-inflammatory drug ketoprofen at 30 mg/kg. Sedation and inhibition of sensorimotor coordination can influence licking and biting pain behaviors, prompting rotarod studies for GL-IV-03 and MP-IV-010. […] In contrast to diazepam, a benzodiazepine with high affinity for the α1β2/3γ2 and other GABAAR subtypes, was sedating at 5 mg/kg.
Formalin test. […]

The subject of the next experiment is iNOS protein. Put plainly: iNOS ELISA in activated microglia. It counts as cell-based, mouse. Conditions: 10 μM, 24 h treatment, vs vehicle. As to the method:
Mouse microglia were activated with IFNγ/LPS and treated with vehicle or 10 μM GL-IV-03. mRNA was isolated after 15 min, 1 h, 3 h and 6 h and iNOS was quantified using RT-qPCR. Cycle numbers for each sample were normalized to GAPDH using the ΔCt method (n=3). Mouse microglia were activated with IFNγ/LPS and treated with vehicle or 10 μM GL-IV-03 for 24 h. Cellular protein was extracted and analyzed with the mouse iNOS ELISA kit from Abcam (n=3). *, (p<0.05), ** (p<0.01) or *** (p<0.001) significance was calculate with ANOVA.
iNOS ELISA. Mouse microglia (2 mL of 500,000 cells/mL cell solution) were activated with 50 ng/mL LPS (Invivogen, NC9836) and 150 U/mL IFNγ (R&D Systems, 485M1100), and treated with compounds of interest in 6 well plates (VWR, 10062-892) for 24 hours. […] Cells were lysed with RIPA buffer and protein concentration quantified with the Pierce Rapid Gold BCA Protein Assay Kit (Thermo Scientific, A53227). Samples at 50 μg/mL were analyzed with the Mouse iNOS ELISA kit (ABCAM, ab253219). Absorbance (λ: 450 nm) was measured using a TECAN Infinite M1000 plate reader. Each measurement was carried with an n=3 and significance analyzed by ANOVA.
Background: An ELISA detects its analyte on a solid surface through an enzyme-linked reagent.

In the next experiment the target is DAT (Homo sapiens, UniProt Q01959). Description: PDSP primary binding DAT. Conditions: PDSP primary screening. On the procedure:
(§1) Because reduction of NO could not be reversed by GABAAR antagonists, the possible binding of MP-IV-010 to other cellular receptors was evaluated in collaboration with the NIMH Psychoactive Drug Screening Program.
(§2) Psychoactive Drug Screening Program. Detailed protocols for the primary and secondary radioligand binding assays can be found in the National Institute of Mental Health's Psychoactive Drug Screening Program (NIMH PDSP) Assay Protocol Book. Briefly, primary and secondary radioligand binding assays are carried out in a final of volume of 125 μL per well in appropriate binding buffer. The radioactive ligand concentration is close to the Kd. Total binding and nonspecific binding are determined in the absence and presence of 10 μM of appropriate reference compound, respectively. In brief, plates are usually incubated at room temperature and in the dark for 90 min. Reactions are stopped by vacuum filtration onto 0.3% polyethyleneimine (PEI) soaked 96-well filter mats using a 96-well Filtermate harvester, followed by three washes with cold PBS buffer. Scintillation cocktail is then melted onto the microwave-dried filters on a hot plate and radioactivity counted in a Microbeta counter. The data (n=6) were analyzed by nonlinear regression.

The next experiment concerns the target SERT (Homo sapiens, UniProt P31645). Put plainly: PDSP primary binding SERT. The following applies: PDSP primary screening. On the procedure:
as §1, §2

The next experiment deals with α3β3γ2 GABAAR (Homo sapiens, UniProt P18507+P34903). Put plainly: Membrane potential red dye assay. It counts as cell-based. On the procedure:
To determine the affinity of MP-IV-010 for these receptors, concentration dependent assays were carried out as depicted in FIG. 4A-4C.

The target in a further experiment is D4 (Homo sapiens, UniProt P21917). Put plainly: PDSP primary binding D4. The following applies: PDSP primary screening. As to the method: as §1, §2
In a further experiment the target is D1 (Homo sapiens, UniProt P21728). Put plainly: PDSP primary binding D1. Conditions: PDSP primary screening. On the procedure:
as §1, §2

The target in another experiment is D2 (Homo sapiens, UniProt P14416). Description: PDSP primary binding D2. Conditions: PDSP primary screening. On the procedure: as §1, §2
The target in another experiment is H1 (Homo sapiens, UniProt P35367). Description: PDSP primary binding H1. The following applies: PDSP primary screening. On the procedure:
as §1, §2

Another experiment deals with 5-HT7 (Homo sapiens, UniProt P34969). Description: PDSP primary binding 5-HT7. The following applies: PDSP primary screening. On the procedure: as §1, §2
The target of a further experiment is M3 (Homo sapiens, UniProt P20309). Put plainly: PDSP primary binding M3. The following applies: PDSP primary screening. As to the method: as §1, §2
For the next experiment, the target named is 5-HT2B (Homo sapiens, UniProt P41595). Put plainly: PDSP primary binding 5-HT2B. The following applies: PDSP primary screening. On the procedure:
as §1, §2

A further experiment deals with M1 (Homo sapiens, UniProt P11229). Put plainly: PDSP primary binding M1. The following applies: PDSP primary screening. As to the method: as §1, §2
The target of a further experiment is Alpha1D (Homo sapiens, UniProt P25100). Description: PDSP primary binding Alpha1D. Conditions: PDSP primary screening. As to the method: as §1, §2
The target in another experiment is M2 (Homo sapiens, UniProt P08172). Put plainly: PDSP primary binding M2. The following applies: PDSP primary screening. On the procedure:
as §1, §2

Chain of D2 (P14416 whole entry): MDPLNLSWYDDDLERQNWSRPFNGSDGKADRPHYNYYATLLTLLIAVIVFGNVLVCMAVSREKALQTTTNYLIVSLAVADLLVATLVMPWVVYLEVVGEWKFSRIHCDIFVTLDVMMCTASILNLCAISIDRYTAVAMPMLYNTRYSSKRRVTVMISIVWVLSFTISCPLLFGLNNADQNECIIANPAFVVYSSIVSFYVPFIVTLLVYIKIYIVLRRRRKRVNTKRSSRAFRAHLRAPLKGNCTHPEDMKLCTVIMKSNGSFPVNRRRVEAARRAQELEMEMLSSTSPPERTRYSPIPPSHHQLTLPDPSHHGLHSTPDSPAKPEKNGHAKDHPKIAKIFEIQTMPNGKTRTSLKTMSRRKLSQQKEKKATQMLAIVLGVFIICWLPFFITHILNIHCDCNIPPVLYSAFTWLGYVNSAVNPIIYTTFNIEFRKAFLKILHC
Chain of M3 (P20309 whole entry): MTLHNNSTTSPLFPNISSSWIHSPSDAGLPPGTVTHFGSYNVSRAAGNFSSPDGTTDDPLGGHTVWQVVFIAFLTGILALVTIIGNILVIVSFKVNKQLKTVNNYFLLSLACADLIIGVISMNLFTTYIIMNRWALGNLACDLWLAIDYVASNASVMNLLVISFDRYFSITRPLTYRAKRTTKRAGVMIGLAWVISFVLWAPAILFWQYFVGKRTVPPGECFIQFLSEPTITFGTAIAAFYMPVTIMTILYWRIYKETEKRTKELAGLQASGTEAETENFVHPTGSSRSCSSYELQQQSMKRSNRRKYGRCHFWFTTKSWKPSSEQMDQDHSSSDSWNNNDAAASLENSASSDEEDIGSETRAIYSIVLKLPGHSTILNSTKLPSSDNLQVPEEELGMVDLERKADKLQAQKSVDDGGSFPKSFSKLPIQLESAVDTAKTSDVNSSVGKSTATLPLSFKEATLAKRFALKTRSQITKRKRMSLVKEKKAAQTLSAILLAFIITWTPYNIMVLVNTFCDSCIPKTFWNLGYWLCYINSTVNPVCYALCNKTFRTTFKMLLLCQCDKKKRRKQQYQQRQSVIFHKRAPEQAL
Chain of M1 (P11229 whole entry): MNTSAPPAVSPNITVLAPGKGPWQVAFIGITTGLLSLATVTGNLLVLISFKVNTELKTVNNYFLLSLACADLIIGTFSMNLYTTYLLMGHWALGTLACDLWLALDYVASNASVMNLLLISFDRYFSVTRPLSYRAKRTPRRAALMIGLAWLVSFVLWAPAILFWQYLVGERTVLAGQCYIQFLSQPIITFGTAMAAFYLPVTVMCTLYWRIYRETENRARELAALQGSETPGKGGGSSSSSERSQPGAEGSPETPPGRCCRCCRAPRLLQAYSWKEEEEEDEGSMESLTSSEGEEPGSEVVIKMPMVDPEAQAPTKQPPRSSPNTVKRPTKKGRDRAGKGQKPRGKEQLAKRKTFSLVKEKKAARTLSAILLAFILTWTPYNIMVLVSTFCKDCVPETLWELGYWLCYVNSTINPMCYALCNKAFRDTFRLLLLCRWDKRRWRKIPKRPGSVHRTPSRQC
Chain of DAT (Q01959 whole entry, species assumed): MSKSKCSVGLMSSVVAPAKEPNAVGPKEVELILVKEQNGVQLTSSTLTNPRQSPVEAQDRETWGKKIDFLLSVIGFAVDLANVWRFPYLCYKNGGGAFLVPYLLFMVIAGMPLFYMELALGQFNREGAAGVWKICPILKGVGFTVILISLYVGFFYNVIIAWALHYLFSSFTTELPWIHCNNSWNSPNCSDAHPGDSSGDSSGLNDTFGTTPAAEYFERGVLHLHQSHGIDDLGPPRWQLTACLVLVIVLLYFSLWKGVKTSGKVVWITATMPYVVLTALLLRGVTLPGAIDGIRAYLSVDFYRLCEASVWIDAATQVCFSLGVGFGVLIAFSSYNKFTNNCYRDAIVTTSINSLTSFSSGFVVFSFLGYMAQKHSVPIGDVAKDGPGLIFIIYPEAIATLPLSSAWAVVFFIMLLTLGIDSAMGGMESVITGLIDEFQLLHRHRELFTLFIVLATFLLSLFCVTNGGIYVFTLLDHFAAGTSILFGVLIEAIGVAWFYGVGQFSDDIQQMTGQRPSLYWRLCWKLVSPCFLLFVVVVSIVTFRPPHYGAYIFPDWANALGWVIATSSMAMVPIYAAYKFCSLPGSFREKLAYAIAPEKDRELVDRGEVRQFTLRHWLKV
Chain of 5-HT2B (P41595 whole entry, species assumed): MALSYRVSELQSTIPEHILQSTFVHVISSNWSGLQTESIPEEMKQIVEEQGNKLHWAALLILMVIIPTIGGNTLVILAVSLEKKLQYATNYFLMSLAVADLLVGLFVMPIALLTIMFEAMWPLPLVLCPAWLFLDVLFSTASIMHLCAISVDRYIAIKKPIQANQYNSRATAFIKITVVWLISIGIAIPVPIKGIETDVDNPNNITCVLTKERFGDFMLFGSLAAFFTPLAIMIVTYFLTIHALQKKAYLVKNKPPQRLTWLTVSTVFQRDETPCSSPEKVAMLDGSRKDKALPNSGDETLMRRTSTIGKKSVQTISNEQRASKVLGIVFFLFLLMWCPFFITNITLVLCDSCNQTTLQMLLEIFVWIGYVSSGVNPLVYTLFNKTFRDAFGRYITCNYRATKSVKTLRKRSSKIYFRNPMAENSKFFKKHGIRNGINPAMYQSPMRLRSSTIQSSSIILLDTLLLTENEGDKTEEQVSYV
Chain of 5-HT7 (P34969 whole entry, species assumed): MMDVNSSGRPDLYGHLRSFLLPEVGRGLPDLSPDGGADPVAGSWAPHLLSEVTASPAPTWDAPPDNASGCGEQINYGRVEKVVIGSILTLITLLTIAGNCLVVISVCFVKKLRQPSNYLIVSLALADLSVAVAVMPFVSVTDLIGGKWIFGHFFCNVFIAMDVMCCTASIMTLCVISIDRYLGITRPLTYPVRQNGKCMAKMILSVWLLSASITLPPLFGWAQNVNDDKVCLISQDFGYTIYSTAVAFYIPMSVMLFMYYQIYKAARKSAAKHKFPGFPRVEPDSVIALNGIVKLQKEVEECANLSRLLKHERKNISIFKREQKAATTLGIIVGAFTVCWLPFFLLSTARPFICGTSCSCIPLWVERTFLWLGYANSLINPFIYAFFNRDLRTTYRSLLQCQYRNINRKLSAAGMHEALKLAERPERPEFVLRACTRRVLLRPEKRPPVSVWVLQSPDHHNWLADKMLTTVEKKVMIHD
Chain of D4 (P21917 whole entry): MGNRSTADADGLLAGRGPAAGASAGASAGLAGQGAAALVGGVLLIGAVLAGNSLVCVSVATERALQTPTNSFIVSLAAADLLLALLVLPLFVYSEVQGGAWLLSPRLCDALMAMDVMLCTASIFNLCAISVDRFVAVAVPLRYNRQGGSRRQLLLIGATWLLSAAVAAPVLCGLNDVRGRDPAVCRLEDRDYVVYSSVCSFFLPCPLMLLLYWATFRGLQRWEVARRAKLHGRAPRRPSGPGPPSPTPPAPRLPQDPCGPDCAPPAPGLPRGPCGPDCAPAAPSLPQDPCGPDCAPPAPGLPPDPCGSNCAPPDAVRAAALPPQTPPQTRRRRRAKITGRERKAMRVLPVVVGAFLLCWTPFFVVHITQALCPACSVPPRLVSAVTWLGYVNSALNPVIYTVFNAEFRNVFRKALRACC
Chain of SERT (P31645 whole entry, species assumed): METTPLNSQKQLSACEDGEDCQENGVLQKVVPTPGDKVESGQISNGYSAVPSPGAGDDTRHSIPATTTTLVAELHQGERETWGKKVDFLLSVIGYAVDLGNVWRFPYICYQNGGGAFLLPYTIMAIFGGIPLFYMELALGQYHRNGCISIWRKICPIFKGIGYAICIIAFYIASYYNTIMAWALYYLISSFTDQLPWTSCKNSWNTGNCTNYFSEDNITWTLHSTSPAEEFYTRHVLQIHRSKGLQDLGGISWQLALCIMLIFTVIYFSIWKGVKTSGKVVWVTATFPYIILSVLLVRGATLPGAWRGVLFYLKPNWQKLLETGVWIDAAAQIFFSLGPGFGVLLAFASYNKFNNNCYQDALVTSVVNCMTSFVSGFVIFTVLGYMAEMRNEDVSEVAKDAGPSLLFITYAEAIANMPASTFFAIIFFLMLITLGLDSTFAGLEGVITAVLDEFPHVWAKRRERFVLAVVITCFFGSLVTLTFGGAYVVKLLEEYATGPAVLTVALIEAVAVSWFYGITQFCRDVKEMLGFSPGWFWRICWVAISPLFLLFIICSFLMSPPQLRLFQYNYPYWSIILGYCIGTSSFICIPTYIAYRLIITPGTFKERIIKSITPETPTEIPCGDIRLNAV
Chain of Alpha1D (P25100 whole entry): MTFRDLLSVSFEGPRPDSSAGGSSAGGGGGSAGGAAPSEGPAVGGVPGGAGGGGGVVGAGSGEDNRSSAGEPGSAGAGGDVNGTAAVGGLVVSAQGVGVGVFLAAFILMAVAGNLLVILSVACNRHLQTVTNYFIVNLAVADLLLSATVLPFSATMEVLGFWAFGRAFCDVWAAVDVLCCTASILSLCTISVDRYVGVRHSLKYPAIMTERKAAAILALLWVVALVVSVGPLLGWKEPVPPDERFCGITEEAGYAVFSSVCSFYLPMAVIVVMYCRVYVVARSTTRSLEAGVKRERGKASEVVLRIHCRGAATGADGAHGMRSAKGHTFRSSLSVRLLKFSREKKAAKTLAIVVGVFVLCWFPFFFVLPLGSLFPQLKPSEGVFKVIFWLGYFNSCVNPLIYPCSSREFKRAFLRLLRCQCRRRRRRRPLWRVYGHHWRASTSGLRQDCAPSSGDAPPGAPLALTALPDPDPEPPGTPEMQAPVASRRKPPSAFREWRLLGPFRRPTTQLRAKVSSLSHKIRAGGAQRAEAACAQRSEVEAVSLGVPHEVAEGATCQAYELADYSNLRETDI

Regarding `CCc1noc(-c2ncn3c2[C@@H](C)N=C(c2ccccc2F)c2cc(C4CC4)ccc2-3)n1` [GL-IV-03, (R)-5-(8-Cyclopropyl-6-(2-fluorophenyl)-4-methyl-4H-benzo[f]imidazo[1,5-a][1,4]diazepin-3-yl)-3-ethyl-1,2,4-oxadiazole], in the experiment on Swiss Webster mice, the “antinociceptive effect, formalin test (phase 1 and 2)” value is “antinociceptive effects in both acute pain (phase 1) and inflammation mediated pain (phase 2)”. The “amount of iNOS protein” value with iNOS protein is “significantly lower”.

The EC50 is the midpoint of the concentration-response curve. A low value points to an effect from little substance. For `C#Cc1ccc2c(c1)C(c1ccccc1F)=N[C@H](C)c1c(-c3nc(C(C)C)no3)ncn1-2` [MP-IV-010, (R)-5-(8-ethynyl-6-(2-fluorophenyl)-4-methyl-4H-benzo[f]imidazo[1,5-a][1,4]diazepin-3-yl)-3-isopropyl-1,2,4-oxadiazole], the “Percent Competition DAT” value on DAT worked out at 14%. For the same compound, on SERT, the “Percent Competition SERT” value worked out at 22%. Further, a half-maximal response at α3β3γ2 GABAAR (EC50) required 14.3 µM. In addition, the “Percent Competition D4” value on D4 is recorded as 5%. Also, the “Percent Competition D1” value on D1 is 28%. For the same compound, the “Percent Competition D2” value on D2 stood at 25%. In addition, on H1, the “Percent Competition H1” value worked out at 19%. The “Percent Competition 5-HT7” value on 5-HT7 was −5%. The “Percent Competition M3” value at M3 is on record as 0%. For the same compound, the “Percent Competition 5-HT2B” value on 5-HT2B is given as 0%. In addition, on M1, the “Percent Competition M1” value is on record as −11%. Besides, at Alpha1D, the “Percent Competition Alpha1D” value is given as 9%. The “Percent Competition M2” value at M2 was 10%.
